# Data from patent US8946215B2, “Hydroxy-substituted imidazo[1,2-a]pyridinecarboxamides and their use” (Bayer Pharma Aktiengesellschaft, priority 2012, dated 2015).
# Where a name gives a salt, the structure may show the parent alone.
# Molecular target: T1, recombinant guanylate cyclase reporter cell line (Rattus norvegicus, UniProt P19686+P20595)
# T1 construct: expressed in transfected cells
# T1 sequence (P20595 1-619): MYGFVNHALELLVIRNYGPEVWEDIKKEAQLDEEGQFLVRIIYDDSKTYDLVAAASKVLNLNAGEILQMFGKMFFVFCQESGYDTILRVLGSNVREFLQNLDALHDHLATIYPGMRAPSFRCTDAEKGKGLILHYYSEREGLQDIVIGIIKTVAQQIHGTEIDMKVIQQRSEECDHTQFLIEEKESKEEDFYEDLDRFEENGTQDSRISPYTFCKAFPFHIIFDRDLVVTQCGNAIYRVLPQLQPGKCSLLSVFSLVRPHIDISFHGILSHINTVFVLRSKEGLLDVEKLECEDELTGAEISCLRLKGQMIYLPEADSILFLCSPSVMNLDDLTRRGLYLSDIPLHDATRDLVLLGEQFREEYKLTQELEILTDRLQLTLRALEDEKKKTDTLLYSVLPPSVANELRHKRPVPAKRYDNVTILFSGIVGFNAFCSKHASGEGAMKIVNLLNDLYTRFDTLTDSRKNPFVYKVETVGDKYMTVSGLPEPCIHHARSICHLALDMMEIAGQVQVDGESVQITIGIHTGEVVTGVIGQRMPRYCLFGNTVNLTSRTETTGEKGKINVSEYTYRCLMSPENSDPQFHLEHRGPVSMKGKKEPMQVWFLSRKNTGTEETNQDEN
# T1 sequence (P19686 1-690): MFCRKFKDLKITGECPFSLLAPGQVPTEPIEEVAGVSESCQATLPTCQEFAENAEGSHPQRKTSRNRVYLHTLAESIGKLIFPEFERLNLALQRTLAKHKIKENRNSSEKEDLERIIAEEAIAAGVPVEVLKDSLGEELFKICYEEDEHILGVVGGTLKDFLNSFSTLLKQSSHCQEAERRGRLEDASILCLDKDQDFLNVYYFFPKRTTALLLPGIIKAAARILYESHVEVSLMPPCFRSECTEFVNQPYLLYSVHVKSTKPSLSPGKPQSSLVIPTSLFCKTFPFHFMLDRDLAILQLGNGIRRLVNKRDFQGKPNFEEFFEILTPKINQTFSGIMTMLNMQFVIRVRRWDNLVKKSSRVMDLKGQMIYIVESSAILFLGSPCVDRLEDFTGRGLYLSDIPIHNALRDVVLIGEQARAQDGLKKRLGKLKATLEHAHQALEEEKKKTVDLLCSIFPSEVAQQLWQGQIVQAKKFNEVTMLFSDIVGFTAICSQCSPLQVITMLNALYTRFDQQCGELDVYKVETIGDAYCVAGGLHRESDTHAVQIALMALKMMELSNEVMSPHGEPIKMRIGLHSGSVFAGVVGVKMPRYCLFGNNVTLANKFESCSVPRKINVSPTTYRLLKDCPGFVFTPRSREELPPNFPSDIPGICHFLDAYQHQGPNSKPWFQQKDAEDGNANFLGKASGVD
# Test: Action on recombinant guanylate cyclase reporter cell line
# Assay type: cell-based
# Details: in some cases mean values obtained from individual determinations
# Outline: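 Cell-based reporter assay with recombinant guanylate cyclase expressed in a reporter cell line, per a published method. Activity reported as minimal effective concentration (MEC), in some cases as the mean of individual determinations.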
row,Compound,MEC (minimal effective concentration) [µM]
1,"CCc1nc2c(OCC3CCCCC3)cccn2c1C(=O)N[C@H](C)CO [Example 55, 8-(Cyclohexylmethoxy)-2-ethyl-N-[(2R)-1-hydroxypropan-2-yl]imidazo[1,2-a]pyridine-3-carboxamide formic acid salt]",0.1
2,"C[C@@H](CO)NC(=O)c1c(C(F)(F)F)nc2c(OCC3CCCCC3)cccn12 [Example 56, 8-(cyclohexylmethoxy)-N-[(2S)-1-hydroxypropan-2-yl]-2-(trifluoromethyl)imidazo[1,2-a]pyridine-3-carboxamide]",1.0
3,"CCCc1nc2c(OCC3CCCCC3)cccn2c1C(=O)N[C@@H](C)CO [Example 57, 8-(cyclohexylmethoxy)-N-[(2S)-1-hydroxypropan-2-yl]-2-propylimidazo[1,2-a]-pyridine-3-carboxamide]",1.0
4,"CCc1nc2c(OCC3CCC3)cccn2c1C(=O)N[C@@H](C)CO [Example 58, 8-(cyclobutylmethoxy)-2-ethyl-N-[(2S)-1-hydroxypropan-2-yl]imidazo[1,2-a]pyridine-3-carboxamide formic acid salt]",3.0
5,"C[C@@H](CO)NC(=O)c1cnc2c(OCC3CCCCC3)cccn12 [Example 59, 8-(cyclohexylmethoxy)-N-[(2S)-1-hydroxypropan-2-yl]imidazo[1,2-a]pyridine-3-carboxamide]",3.0
6,"CCCC[C@H](CO)NC(=O)c1c(C)nc2c(OCc3c(F)cccc3F)cc(CC)cn12 [Example 60, 8-[(2,6-difluorobenzyl)oxy]-6-ethyl-N-[(2R)-1-hydroxyhexan-2-yl]-2-methylimidazo[1,2-a]pyridine-3-carboxamide]",0.1
7,"CCCC[C@H](CO)NC(=O)c1c(C)nc2c(OCc3c(F)cccc3F)cc(C3CC3)cn12 [Example 61, 6-cyclopropyl-8-[(2,6-difluorobenzyl)oxy]-N-[(2R)-1-hydroxyhexan-2-yl]-2-methylimidazo[1,2-a]pyridine-3-carboxamide]",1.0
8,"CCCC[C@H](CO)NC(=O)c1cnc2c(OCc3c(F)cccc3F)cccn12 [Example 62, 8-[(2,6-difluorobenzyl)oxy]-N-[(2R)-1-hydroxyhexan-2-yl]imidazo[1,2-a]pyridine-3-carboxamide]",0.3
9,"CCCC[C@H](CO)NC(=O)c1c(C)nc2c(OCc3c(F)cccc3F)cc(N3CCOCC3)cn12 [Example 63, 8-[(2,6-difluorobenzyl)oxy]-N-[(2R)-1-hydroxyhexan-2-yl]-2-methyl-6-(morpholin-4-yl)imidazo[1,2-a]pyridine-3-carboxamide]",3.0
10,"CCCC[C@H](CO)NC(=O)c1c(C)nc2c(OCc3c(F)cccc3F)cc(N3CCCC3)cn12 [Example 64, 8-[(2,6-difluorobenzyl)oxy]-N-[(2R)-1-hydroxyhexan-2-yl]-2-methyl-6-(pyrrolidin-1-yl)imidazo[1,2-a]pyridine-3-carboxamide]",3.0
11,"CCCC[C@H](CO)NC(=O)c1c(C)nc2c(OCc3c(F)cccc3F)cc(Br)cn12 [Example 65, 6-bromo-8-[(2,6-difluorobenzyl)oxy]-N-[(2R)-1-hydroxyhexan-2-yl]-2-methylimidazo[1,2-a]pyridine-3-carboxamide]",0.03
12,"CCC[C@H](CO)NC(=O)c1c(C)nc2c(OCC3CCCCC3)cccn12 [Example 67, 8-(cyclohexylmethoxy)-N-[(2R)-1-hydroxypentan-2-yl]-2-methylimidazo[1,2-a]pyridine-3-carboxamide]",0.03
13,"Cc1nc2c(OCC3CCCCC3)cccn2c1C(=O)NC[C@H](O)CO [Example 68, 8-(cyclohexylmethoxy)-N-[(2S)-2,3-dihydroxypropyl]-2-methylimidazo[1,2-a]pyridine-3-carboxamide]",0.03
14,"CC[C@H](CO)NC(=O)c1c(C)nc2c(OCC3CCCCC3)cccn12 [Example 72, 8-(cyclohexylmethoxy)-N-[(2R)-1-hydroxybutan-2-yl]-2-methylimidazo[1,2-a]pyridine-3-carboxamide]",0.1

# Other lines, results leading:
row,MEC (minimal effective concentration) [µM],Compound
1,0.2,"Cc1nc2c(OCC3CCCCC3)cccn2c1C(=O)NCCCCO [Example 74, 8-(cyclohexylmethoxy)-N-(4-hydroxybutyl)-2-methylimidazo[1,2-a]pyridine-3-carboxamide]"
2,0.22,"Cc1nc2c(OCC3CCCCC3)cccn2c1C(=O)N[C@@H](C)CO [Example 75, 8-(cyclohexylmethoxy)-N-[(2S)-1-hydroxypropan-2-yl]-2-methylimidazo[1,2-a]pyridine-3-carboxamide]"
3,0.3,"Cc1nc2c(OCC3CCCCC3)cccn2c1C(=O)NCCO [Example 76, 8-(cyclohexylmethoxy)-N-(2-hydroxyethyl)-2-methylimidazo[1,2-a]pyridine-3-carboxamide formate]"
4,0.3,"Cc1nc2c(OCC3CCCCC3)cccn2c1C(=O)NC(CO)(CO)CO [Example 77, 8-(cyclohexylmethoxy)-N-[1,3-dihydroxy-2-(hydroxymethyl)propan-2-yl]-2-methylimidazo[1,2-a]pyridine-3-carboxamide formate]"
5,0.3,"COCC(O)CNC(=O)c1c(C)nc2c(OCC3CCCCC3)cccn12 (stereo not shown) [Example 79, 8-(cyclohexylmethoxy)-N-(2-hydroxy-3-methoxypropyl)-2-methylimidazo[1,2-a]pyridine-3-carboxamide]"
6,0.3,"Cc1nc2c(OCC3CCCCC3)cccn2c1C(=O)NC[C@@H](O)CO [Example 80, 8-(cyclohexylmethoxy)-N-[(2R)-2,3-dihydroxypropyl]-2-methylimidazo[1,2-a]pyridine-3-carboxamide]"
7,0.3,"Cc1nc2c(OCC3CCCCC3)cccn2c1C(=O)NCCCO [Example 82, 8-(cyclohexylmethoxy)-N-(3-hydroxypropyl)-2-methylimidazo[1,2-a]pyridine-3-carboxamide]"
8,0.3,"Cc1nc2c(OCC3CCCCC3)cccn2c1C(=O)NC1CCCC1O (stereo not shown) [Example 83, 8-(cyclohexylmethoxy)-N-(2-hydroxycyclopentyl)-2-methylimidazo[1,2-a]pyridine-3-carboxamide]"
9,0.3,"Cc1nc2c(OCC3CCCCC3)cccn2c1C(=O)NC(C)CO (stereo not shown) [Example 84, 8-(cyclohexylmethoxy)-N-(1-hydroxypropan-2-yl)-2-methylimidazo[1,2-a]pyridine-3-carboxamide]"
10,0.38,"Cc1nc2c(OCC3CCCCC3)cccn2c1C(=O)NC(CO)CO [Example 85, 8-(cyclohexylmethoxy)-N-(1,3-dihydroxypropan-2-yl)-2-methylimidazo[1,2-a]pyridine-3-carboxamide]"
11,0.65,"Cc1nc2c(OCC3CCCCC3)cccn2c1C(=O)NCCOCCO [Example 86, 8-(cyclohexylmethoxy)-N-[2-(2-hydroxyethoxy)ethyl]-2-methylimidazo[1,2-a]-pyridine-3-carboxamide]"
12,1.0,"Cc1nc2c(OCC3CCCCC3)cccn2c1C(=O)NC(C)(C)C(C)O (stereo not shown) [Example 87, 8-(cyclohexylmethoxy)-N-(3-hydroxy-2-methylbutan-2-yl)-2-methylimidazo[1,2-a]pyridine-3-carboxamide]"
13,1.0,"CC[C@@H](CO)NC(=O)c1c(C)nc2c(OCC3CCCCC3)cccn12 [Example 88, 8-(cyclohexylmethoxy)-N-[(2S)-1-hydroxybutan-2-yl]-2-methylimidazo[1,2-a]pyridine-3-carboxamide]"
14,1.0,"CCC[C@@H](CO)NC(=O)c1c(C)nc2c(OCC3CCCCC3)cccn12 [Example 89, 8-(cyclohexylmethoxy)-N-[(2S)-1-hydroxypentan-2-yl]-2-methylimidazo[1,2-a]pyridine-3-carboxamide]"
